Active and inactive are the calls of the source. The rule behind the calls is not given here.
How the values were obtained:
[1] = Toxicity in BALB/c nude mouse xenografted with human MGC-803 cells assessed as effect on body weight at 15 to 30 mg/kg, ip administered once daily for 21 days; type: organism-based; details: in vivo, 504 h, dose 15-30 mg/kg, time 21 day
HGC-27 [2] = experiment: Induction of apoptosis in human HGC-27 cells assessed as increase in total apoptotic cells at 30 nM incubated for 48 hrs by annexin V FITC and propidium iodide staining based flow cytometry analysis (reference value: 7.2%); type: functional
HGC-27 [3] = experiment: Inhibition of p38 signalling pathway in human HGC-27 cells assessed as reduction in downstream substrate HSP-27 phosphorylation at 10 to 30 nM incubated for 48 hrs; type: cell-based; details: dose 10-30 nM
MGC-803 [4] = experiment: Induction of apoptosis in human MGC-803 cells assessed as increase in cleavage substrate PARP level; type: functional, cell-based; details: dose 5-15 nM, DDE = dose-dependent effect
MGC-803 [5] = experiment: Induction of apoptosis in human MGC-803 cells assessed as decrease in XIAP level; type: functional, cell-based; details: dose 5-15 nM, DDE = dose-dependent effect
MGC-803 [6] = experiment: Induction of apoptosis in human MGC-803 cells assessed as decrease in cIAP-1 level; type: functional, cell-based; details: dose 5-15 nM, DDE = dose-dependent effect
[7] = target: Tubulin beta (Homo sapiens) (UniProt P68371+Q9H4B7+Q13509+P04350+Q3ZCM7+P07437+Q13885+Q9BVA1+Q9BUF5+A6NNZ2); experiment: Binding affinity to beta-tubulin colchicine binding site in human HGC-27 cells assessed as decrease in beta-tubulin adduct band incubated for 2 hrs by EBI alkylate competition assay; type: cell-based; details: dose 0.075-0.75 µM, DDE = dose-dependent effect
[8] = Induction of mitochondria mediated intrinsic apoptosis in human HGC-27 cells assessed as early apoptotic cells at 10 nM measured after 48 hrs by flow cytometry analysis (Rvb= 6.4%); type: functional
HGC-27 [9] = experiment: Downregulation of Wee1 expression in human HGC-27 cells at 10 to 30 nM incubated for 48 hrs; type: functional, cell-based; details: dose 10-30 nM
MGC-803 [10] = experiment: Downregulation of phosphorylated ATF-2 expression in human MGC-803 cells incubated for 48 hrs; type: functional, cell-based; details: dose 5-15 nM, DDE = dose-dependent effect
MGC-803 [11] = experiment: Induction of apoptosis in human MGC-803 cells assessed as increase in Noxa level; type: functional, cell-based; details: dose 5-15 nM, DDE = dose-dependent effect
A549 = experiment: Antiproliferative activity against human A549 cells assessed as reduction in cell viability incubated for 48 hrs by MTT assay; type: functional, cell-based; details: A549, 48 h
MGC-803 [12] = experiment: Induction of apoptosis in human MGC-803 cells assessed as nuclear concentration at 5 to 15 nM incubated for 48 hrs by DAPI staining based analysis; type: functional, cell-based; details: dose 5-15 nM
Tubulin (Homo sapiens) [13] = target: T1, Tubulin (Homo sapiens) (UniProt P68371+Q9H4B7+P0DPH7+P68366+Q13509+Q71U36+P04350+Q3ZCM7+P07437+P68363+Q9BQE3+Q6PEY2+Q13885+Q9BVA1+Q9BUF5); experiment: Disruption of microtubule network in human MGC-803 cells assessed as cytoskeleton disruption at 5 to 15 nM measured after 48 hrs by DAPI staining based fluorescence microscopic analysis; type: cell-based; details: dose 5-15 nM
MGC-803 [14] = experiment: Induction of apoptosis in human MGC-803 cells assessed as increase in dead cells at 5 to 15 nM incubated for 48 hrs by calcein-AM dye/propidium iodide staining based analysis; type: functional, cell-based; details: dose 5-15 nM
HGC-27 [15] = experiment: Inhibition of p38 signalling pathway in human HGC-27 cells assessed as reduction in MKK3/6 phosphorylation at 10 to 30 nM incubated for 48 hrs; type: cell-based; details: dose 10-30 nM
Mus musculus [16] = experiment: Downregulation of ERK1/2 phosphorylation in tumor tissue of BALB/c nude mouse xenografted with human MGC-803 cells at 15 to 30 mg/kg, ip administered once daily for 21 days by Western blotting analysis; type: functional, organism-based; details: dose 15-30 mg/kg, time 21.0 day
MGC-803 [17] = experiment: Downregulation of cdc2 phosphorylation at Thr14 residue in human MGC-803 cells at 5 to 15 nM incubated for 48 hrs; type: functional, cell-based; details: dose 5-15 nM
MGC-803 [18] = experiment: Induction of cell cycle arrest in human MGC-803 cells assessed as accumulation of cells at G2/M phase at 15 nM incubated for 48 hrs by propidium iodide staining based flow cytometry analysis (reference value: 24%); type: functional
MGC-803 [19] = experiment: Downregulation of cyclin B1 expression in human MGC-803 cells at 5 to 15 nM incubated for 48 hrs; type: functional, cell-based; details: dose 5-15 nM
HGC-27 [20] = experiment: Induction of apoptosis in human HGC-27 cells assessed as decrease in cell density at 10 to 30 nM incubated for 48 hrs by bright field imaging analysis; type: functional, cell-based; details: dose 10-30 nM
MGC-803 [21] = experiment: Antiproliferative activity against human MGC-803 cells assessed as inhibition of cell growth at 5 to 15 nM incubated for 60 hrs; type: functional, cell-based; details: dose 5-15 nM
Tubulin (Homo sapiens) [22] = target: T1, Tubulin (Homo sapiens); experiment: Disruption of microtubule network in human MGC-803 cells assessed as irregular form of filamentous microtubule structures at 5 to 15 nM measured after 48 hrs by DAPI staining based fluorescence microscopic analysis; type: cell-based; details: dose 5-15 nM
Tubulin = Tubulin (Sus scrofa, UniProt P02554+P02550); experiment: Inhibition of porcine brain tubulin polymerization by fluorescence based assay; type: tissue-based
Mus musculus [23] = experiment: Upregulation of cleaved caspase -3 expression in tumor tissue of BALB/c nude mouse xenografted with human MGC-803 cells at 15 to 30 mg/kg, ip administered once daily for 21 days by Western blotting analysis; type: functional, organism-based; details: dose 15-30 mg/kg, time 21.0 day
MGC-803 [24] = experiment: Induction of apoptosis in human MGC-803 cells assessed as decrease in cell density at 5 to 15 nM incubated for 48 hrs by bright field imaging analysis; type: functional, cell-based; details: dose 5-15 nM
HGC-27 [25] = experiment: Downregulation of FoxO3a expression in human HGC-27 cells incubated for 48 hrs; type: functional, cell-based; details: dose 10-30 nM, DDE = dose-dependent effect
MGC-803 [26] = experiment: Antiproliferative activity against human MGC-803 cells assessed as reduction in cell viability incubated for 12 to 48 hrs by MTT assay; type: functional, cell-based; details: dose 15-30 nM, time 12-48 hrs, DDE = dose-dependent effect
MGC-803 [27] = experiment: Antitumor activity against human MGC-803 cells xenografted BALB/c nude mouse assessed as inhibition of tumor volume at 15 to 30 mg/kg, ip administered once daily for 21 days and measured every 2 days; type: functional, organism-based; details: dose 15-30 mg/kg, time 21.0 day
PC-3 = experiment: Antiproliferative activity against human PC-3 cells assessed as reduction in cell viability incubated for 48 hrs by MTT assay; type: functional, cell-based; details: PC-3, 48 h
HGC-27 [28] = experiment: Upregulation of phosphorylated Histone H3 expression in human HGC-27 cells at 10 to 30 nM incubated for 48 hrs; type: functional, cell-based; details: dose 10-30 nM
[29] = Induction of mitochondria mediated intrinsic apoptosis in human MGC-803 cells assessed as early apoptotic cells at 10 nM measured after 48 hrs by flow cytometry analysis (Rvb= 1.6%); type: functional
HGC-27 [30] = experiment: Induction of apoptosis in human HGC-27 cells assessed as increase in cleavage caspase 7 level; type: functional, cell-based; details: dose 10-30 nM, DDE = dose-dependent effect
TE-1 = experiment: Antiproliferative activity against human TE-1 cells assessed as reduction in cell viability incubated for 48 hrs by MTT assay; type: functional, cell-based; details: TE-1, 48 h
HGC-27 [31] = experiment: Inhibition of p38 signalling pathway in human HGC-27 cells assessed as reduction in downstream substrate MAPKAPK2 phosphorylation at 10 to 30 nM incubated for 48 hrs; type: cell-based; details: dose 10-30 nM
HGC-27 [32] = experiment: Induction of apoptosis in human HGC-27 cells assessed as cell rounding at 10 to 30 nM incubated for 48 hrs by bright field imaging analysis; type: functional, cell-based; details: dose 10-30 nM

## CN(c1ccc2c(ccn2C)c1)c1cc(=O)oc2ccccc12
[1]
  Activity: Non-Toxic
HGC-27 [2]
  Activity: 47.3%
HGC-27 [3]
  inhibition: Active
MGC-803 [4]
  Activity: Dde
MGC-803 [5]
  Activity: Dde
MGC-803 [6]
  Activity: Dde
[7]
  Activity: Dde
[8]
  Activity: 8.3%
HGC-27 [9]
  Activity: Active
MGC-803 [10]
  Activity: Dde
MGC-803 [11]
  Activity: Dde
A549
  IC50: 0.0593 µM
MGC-803 [12]
  Activity: Active
Tubulin (Homo sapiens) [13]
  Activity: Active
MGC-803 [14]
  Activity: Active
HGC-27 [15]
  inhibition: Active
Mus musculus [16]
  Activity: Active
MGC-803 [17]
  Activity: Active
MGC-803 [18]
  Activity: 53%
MGC-803 [19]
  Activity: Active
HGC-27 [20]
  Activity: Active
MGC-803 [21]
  inhibition: Active
Tubulin (Homo sapiens) [22]
  Activity: Active
Tubulin
  IC50: 2.46 µM
Mus musculus [23]
  Activity: Active
MGC-803 [24]
  Activity: Active
HGC-27 [25]
  Activity: Dde
MGC-803 [26]
  Activity: Dde
MGC-803 [27]
  Activity: Active
PC-3
  IC50: 0.0349 µM
HGC-27 [28]
  Activity: Active
[29]
  Activity: 7.2%
HGC-27 [30]
  Activity: Dde
TE-1
  IC50: 0.489 µM
HGC-27 [31]
  inhibition: Active
HGC-27 [32]
  Activity: Active
